Results taken from the NIST ThermoML archive (doi:10.1021/je8009336).

Columns and labels:
[1] = Liquid; for mass density: Vibrating tube method; for speed of sound: Vibrating Tube Densimeter
[2] = refractive index (Na D-line) (dimensionless); conditions: 101.33 kPa, Liquid, Standard Abbe refractometry
[3] = xn = mol fraction of the nth substance listed; conditions: 313.15 K, 101 kPa, Liquid; for speed of sound: Vibrating Tube Densimeter; for mass density: Vibrating tube method
[4] = refractive index (Na D-line) (dimensionless); xn = mol fraction of the nth substance listed; conditions: 313.15 K, 101 kPa, Liquid, Standard Abbe refractometry

c1ccccc1 [benzene]
[1]
Conditions | mass density, 298.15 K [kg/m3] | mass density, 313.15 K [kg/m3] | speed of sound, 313.15 K [m/s]
101 kPa | – | 857.5 | 1230.5
101.33 kPa | 873.5 | – | –

[2]
Conditions | refractive index
298.15 K | 1.49775
313.15 K | 1.48777

c1ccccc1 [benzene] + C1CCCC1
x2 = 0
Conditions | mass density [kg/m3] | refractive index | speed of sound [m/s]
[3] | 857.5 | – | 1230.5
[4] | – | 1.48777 | –

c1ccccc1 [benzene] + C1CCCCC1
x2 = 0
Conditions | mass density [kg/m3] | refractive index | speed of sound [m/s]
[3] | 857.5 | – | 1230.5
[4] | – | 1.48777 | –

c1ccccc1 [benzene] + CC1CCCCC1
x2 = 0
Conditions | mass density [kg/m3] | refractive index | speed of sound [m/s]
[3] | 857.5 | – | 1230.5
[4] | – | 1.48777 | –

C1CCCCC1 [cyclohexane]
[1]
Conditions | mass density, 298.15 K [kg/m3] | mass density, 313.15 K [kg/m3] | speed of sound, 313.15 K [m/s]
101 kPa | – | 759.6 | 1181.7
101.33 kPa | 773.8 | – | –

[2]
Conditions | refractive index
298.15 K | 1.42353
313.15 K | 1.41513

C1CCCCC1 [cyclohexane] + CCc1ccccc1
x1 = 1
Conditions | mass density [kg/m3] | refractive index | speed of sound [m/s]
[3] | 759.6 | – | 1181.7
[4] | – | 1.41513 | –

C1CCCCC1 [cyclohexane] + Cc1ccccc1
Conditions | mass density, [3] [kg/m3] | refractive index, [4] | speed of sound, [3] [m/s]
x1 = 0.0377 | 844.4 | 1.48212 | 1236.8
x1 = 0.0967 | 838.2 | 1.47761 | 1230
x1 = 0.1945 | 828.5 | 1.47007 | 1220.1
x1 = 0.2433 | 823.4 | 1.46621 | 1215.4
x1 = 0.3985 | 808.6 | 1.45475 | 1202.3
x1 = 0.5672 | 793.4 | 1.44276 | 1191.4
x1 = 0.5965 | 790.9 | 1.44073 | 1189.8
x1 = 0.7019 | 781.9 | 1.43356 | 1185.1
x1 = 0.7958 | 774.4 | 1.4276 | 1182.2
x1 = 0.9011 | 766.5 | 1.42097 | 1181.2
x1 = 0.95 | 763 | 1.41807 | 1180.9
x1 = 1 | 759.6 | 1.41513 | 1181.7

C1CCCCC1 [cyclohexane] + c1ccccc1
Conditions | mass density, [3] [kg/m3] | refractive index, [4] | speed of sound, [3] [m/s]
x1 = 0.0819 | 846.2 | 1.47958 | 1218.9
x1 = 0.1282 | 840.2 | 1.47489 | 1213.2
x1 = 0.2087 | 830.1 | 1.46761 | 1204.5
x1 = 0.2898 | 820.5 | 1.46073 | 1197
x1 = 0.4018 | 808.5 | 1.45171 | 1188.6
x1 = 0.5047 | 798.3 | 1.44414 | 1183.3
x1 = 0.6058 | 789.1 | 1.43724 | 1179.8
x1 = 0.7 | 780.9 | 1.43118 | 1177.7
x1 = 0.7989 | 773.2 | 1.42538 | 1177.3
x1 = 0.9059 | 765.7 | 1.41966 | 1178.6
x1 = 0.9505 | 762.7 | 1.41753 | 1179.7
x1 = 1 | 759.6 | 1.41513 | 1181.7

C1CCCC1 [cyclopentane]
[1]
Conditions | mass density, 298.15 K [kg/m3] | mass density, 313.15 K [kg/m3] | speed of sound, 313.15 K [m/s]
101 kPa | – | 725 | 1130
101.33 kPa | 740 | – | –

[2]
Conditions | refractive index
298.15 K | 1.40342
313.15 K | 1.39456
